The nature of the data set: gradient 5% acetonitrile 3 min, to 50% in 2 min, to 85% in 15 min, held 3 min, 100 µL/min. The settings on record: column: Zorbax Extend-C18 2.1 x 50 mm; eluents: water / acetonitrile, 0.1% formic acid. A digest of the protocol:
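Retention time was recorded from adduct peaks, which were picked computationally and each inspected manually. Pure standards ran in mixtures of ~100 molecules on HPLC coupled to a quadrupole time-of-flight mass spectrometer, in positive and negative ionization mode, through a Zorbax Extend-C18 column (2.1 × 50 mm, 1.8 μm) at 100 μL/min. Eluents were water and acetonitrile, each with 0.1% formic acid.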
For `Cc1ccc(/C=C/c2nc(-c3cccc(-c4ccnn4C)c3)no2)cc1`, the RP-LC retention time was 1270 s. `COCCN1C(=O)CCc2cc(NS(=O)(=O)c3ccc(F)cc3)ccc21` had an RP-LC retention time of 759 s. `O=C(NCC(O)c1ccsc1)c1ccc2c(c1)OCO2` (stereo unspecified) came in with an RP-LC retention time of 652 s. For `COc1ccccc1OCCNc1nc2ccncc2n(C(C)C)c1=O` the value was 573 s; for `Cc1cc(C)cc(C(=O)N2CCC3(CC2)NC(=O)c2cc(C)ccc2N3C)c1`, 852 s. For `O=C(NC1CCCCCC1)c1ccc(-c2cncnc2)nc1` the value was 764 s. The value for `Cc1cc(C2CCCN2C(=O)Nc2ccccc2Br)on1` (stereo unspecified) was 867 s. `O=C(Nc1ccc(F)cc1F)c1c(O)c2cccnc2n(-c2cccc(F)c2)c1=O` showed an RP-LC retention time of 918 s. For `COc1cccc(/C=C/C(=O)NC2(c3nc(C(C)C)no3)CCCCC2)c1` the value was 1050 s; for `CCCCS(=O)(=O)N1CCC(n2c(-c3ccc(OC)cc3)nc3cccnc32)C1` (stereo unspecified), 846 s; for `COc1ccc(NC(=O)C2CCN(S(=O)(=O)c3cc(C(=O)N(C)C)cs3)CC2)cc1`, 730 s. As for `CCOC(=O)c1ccccc1NC(=O)Cn1cnc2c(sc3nc(-c4ccccc4)ccc32)c1=O`, the RP-LC retention time was determined as 1200 s. Regarding `O=C(Cc1cccs1)NCC1CCS(=O)(=O)C1` (stereo unspecified), the RP-LC retention time was determined as 586 s.

`CC(C)CCn1nc2ccc(S(=O)(=O)N3CCOCC3)cn2c1=O` displayed an RP-LC retention time of 801 s. For `CCc1nnc(-c2ccc(NC(=O)c3ccc(S(=O)(=O)N(CC)CC)cc3)cc2)o1` the value was 826 s; for `Cc1nc2cccnc2n1C1CCN(C(=O)Nc2ccc(Br)cc2F)CC1`, 671 s; for `CC(C)CN1CCN(C(=O)COc2ccc(NC(=O)C3CC3)cn2)CC1`, 570 s. The value for `Cc1ccc(OCC(=O)Nc2cnn(C)c(=O)c2N2CCCCC2)cc1` was 1070 s; that for `[O-]/[N+](=C\c1ccccc1)CC1(O)CCCCC1` was 798 s. Take `COCCN1C(=O)Cc2ccccc2C1C(=O)NCc1cccc(Cl)c1` (stereo unspecified): the RP-LC retention time is 766 s. `O=C(CCc1c[nH]c2ccccc12)N1CC(n2cc(COCC3CC3)nn2)C1` had an RP-LC retention time of 719 s. As to `O=C(Cn1c(=O)c(CCC(=O)NC2CC2)nc2ccccc21)NCc1ccccc1Br`, the RP-LC retention time came out at 736 s. The value for `Cc1ccc(S(=O)(=O)N2C[C@@H](F)C[C@H]2C(=O)N2CCOCC2)c(C)c1` was 740 s; that for `Cc1ccc(CNC(=O)c2cn3c(n2)COCC3)cc1C` was 704 s; that for `COCc1nc(NCc2ccc3c(c2)OCO3)ncc1C(=O)O` was 673 s. For `CC(C)NC(=O)C1CCN(c2cnc(N3CCSCC3)nc2)CC1` the value was 629 s; for `Cc1ccn2c(Nc3ccc4c(c3)OCCO4)c(-c3ccc(Cl)cc3)nc2c1`, 717 s.

Compound `O=C(c1ccc2c(c1)Sc1ncccc1C(=O)N2C1CC1)N1CCCCC1` returned an RP-LC retention time of 733 s.

Consider `O=C(NCc1ccco1)c1csc(N2CCN(c3ccc(Cl)cc3)CC2)n1`, for which the RP-LC retention time came out at 1090 s.

The compound `CC(C)NCC(O)COc1ccccc1-n1cccc1` (stereo unspecified) returned an RP-LC retention time of 701 s.

`COCCN1C(=O)CCc2cc(NS(=O)(=O)c3cc(Cl)ccc3OC)ccc21`: the RP-LC retention time amounted to 803 s. The compound `CCC(=O)N1c2ccccc2NC2=C(C(=O)CC(C)(C)C2)C1c1ccc(O)c(OC)c1` (stereo unspecified) came in with an RP-LC retention time of 703 s. `COc1ccc2[nH]c(C(=O)N3CCN(C(=O)c4ccco4)CC3)cc2c1` showed an RP-LC retention time of 706 s.

As for `O=C1CC(C(=O)N2CCOCC2)CN1CCc1c[nH]c2ccc(Cl)cc12` (stereo unspecified), the RP-LC retention time is 677 s. Compound `COCCn1c(C(CNc2cccc(C)c2)CC(=O)O)nc2ccccc21` (stereo unspecified) came in with an RP-LC retention time of 620 s.

Regarding `CCN1C(=O)COc2ccc(-c3csc(NC(=O)c4ccccc4Cl)n3)cc21`, the RP-LC retention time is 968 s. For `CCOc1ccccc1CN1C(=O)c2ccccc2C1C(=O)NC(C)CC` (stereo unspecified) the value was 899 s; for `CC1CCC(NS(=O)(=O)c2ccc3c(c2)c(=O)n(CC(=O)N2CCCC2)c(=O)n3C)CC1` (stereo unspecified), 834 s; for `COc1ccc(-c2nnc(SCc3cc(=O)n4c(C)csc4n3)o2)cc1OC`, 762 s. The value for `CC(C)Nc1ccc2nnc(C3CCC3)n2n1` was 801 s.

Consider `CSc1cccc(N2C(=O)C3N=NN(Cc4nc(-c5ccc(Cl)cc5)no4)C3C2=O)c1` (stereo unspecified), for which the RP-LC retention time was 1070 s. For `COc1cccc(S(=O)(=O)N2CC(F)(F)C[C@H]2CN2CCc3ccccc3C2)c1`, the RP-LC retention time turned out to be 807 s. For `O=C(O)c1ccc(Nc2nc(-c3ccc(Br)cc3)cs2)cc1` the value was 989 s. For `CCc1ccccc1NC(=O)C1CCN(S(=O)(=O)c2cc(C(=O)N3CCCC3)cs2)CC1` the value was 799 s. As to `Cc1nc(-c2ccccc2)sc1C(=O)Nc1c(C)nc2ccc(Cl)cn2c1=O`, the RP-LC retention time was determined as 737 s.

`Fc1ccccc1-c1noc(-c2nc(-c3ccccc3F)no2)n1` yielded an RP-LC retention time of 1140 s. In the case of `COc1cccc(CCC(=O)N2C[C@@H]3C[C@H](NS(C)(=O)=O)[C@H]2C3)c1`, the RP-LC retention time was 566 s. The compound `Cc1noc(C)c1S(=O)(=O)N1CC(c2nc(-c3ccncc3)nn2C)C1` gave an RP-LC retention time of 618 s. The value for `CC(C)CN1CCn2cc(C(=O)NCc3ccc(F)c(Cl)c3)nc2C1` was 647 s; that for `CCC(=O)N(C1CCOCC1)C1CCN(S(=O)(=O)c2cc(F)ccc2C)CC1` was 864 s; that for `CCOc1ccc(CNC(=O)C2CCCN(c3nnc(C)c4c(C)n(-c5ccc(C)cc5)nc34)C2)cc1` (stereo unspecified) was 785 s.

Consider `CC1CCN(S(=O)(=O)c2ccc3nn(CC(=O)OC(C)(C)C)c(=O)n3c2)CC1`, for which the RP-LC retention time came to 999 s. Take `COc1ccc(OCc2noc(CNC(=O)c3cccnc3)n2)cc1`: the RP-LC retention time stood at 749 s. The value for `CCOc1ccc(CCNC(=O)C2CCCN(c3ncnc4c3nc3n4CCCCC3)C2)cc1` (stereo unspecified) was 807 s. With `O=C(Cn1cccn1)N1CCCC(COCc2ccccc2)C1` (stereo unspecified), the RP-LC retention time stood at 709 s. The compound `CCOC(=O)Cc1c(C)nc2cc(-c3ccc(OC)cc3)nn2c1C` came in with an RP-LC retention time of 980 s. For `COc1ccccc1N(CN1CCCC1=O)C(=O)COc1ccccc1` the value was 699 s; for `COCc1cc(=O)n(CC(=O)Nc2cccc(C)c2C)c(N)n1`, 602 s; for `CCCNC(=O)C1CCCN(c2cnc3nc(CC)c(CC)nc3c2)C1` (stereo unspecified), 755 s. For `CCc1nn(CCO)c(CC)c1Oc1cc(C#N)cc(C#N)c1` the value was 891 s. For `O=C(CSCc1nc2cccnc2n1C1CCCCC1)N1CCN(c2ccccn2)CC1` the value was 649 s; for `Cn1nc(C2CCN(C(=O)c3ccc4ccccc4n3)CC2)c2c1CCOC2`, 669 s. Compound `CCCNC(=O)C1CCCN(c2nc3ncn(CC(=O)Nc4cc(F)ccc4C)c(=O)c3s2)C1` (stereo unspecified) came in with an RP-LC retention time of 705 s. The value for `O=C(Cc1c[nH]c2ccccc12)NC1CCN(c2cc(-c3ccc(Cl)cc3)[nH]n2)C1` (stereo unspecified) was 743 s. The value for `Cc1ccc(-c2nn3c(N4CCN(c5ccccn5)CC4)cc(C)nc3c2C)cc1` was 613 s; that for `CCn1c(=O)c(N2CCN(C(=O)NCc3ccccc3)CC2)nc2ccccc21` was 820 s. The value for `COc1ccc(CNC(=O)C2(C)CCN(S(=O)(=O)c3c(C)cc(C)cc3C)CC2)cc1` was 912 s. `CC(C)(C)NC(=O)N1CCC(CNC(=O)c2ccsc2)CC1` came in with an RP-LC retention time of 657 s. `CCc1ccc(NC(=O)Cn2cnc3c(sc4nc(-c5ccccc5)ccc43)c2=O)cc1` registered an RP-LC retention time of 1100 s.

Compound `COc1ccccc1NC(=O)Nc1cccc(-c2ccc(N3CCOCC3)nn2)c1` gave an RP-LC retention time of 702 s.

`COc1ccc(N2CCN(C(=O)c3ccc(-c4ccsc4)nc3)CC2)cc1` gave an RP-LC retention time of 1160 s.

`Cc1ccc(-c2nc3cnccn3c2NCCC(=O)NC2CCCC2)cc1` yielded an RP-LC retention time of 696 s.

On to `COc1cc(OC)cc(C(=O)N2CCCC2c2nc(-c3ccc(OC)c(OC)c3)no2)c1` (stereo unspecified), for which the RP-LC retention time was found to be 879 s. With `O=S(=O)(Nc1cccc(Cl)c1)c1ccc2nncn2c1`, the RP-LC retention time came to 700 s. In turn, `COc1ccc(C)cc1N1C(=O)CC(N2CCC(C(N)=O)CC2)C1=O` (stereo unspecified) registered an RP-LC retention time of 590 s. Take `CCOC(=O)C1=C(C)NC2=C(C(=O)c3ccccc32)C1c1cccc(OC)c1OC` (stereo unspecified): the RP-LC retention time is 902 s. The value for `Cc1nnc(-c2ccc3ccn(CC(=O)Nc4cccc(F)c4)c3c2)o1` was 808 s. The value for `CCN1C(=O)COc2ccc(-c3noc(/C=C/c4ccc(OC)c(OC)c4)n3)cc21` was 1050 s; that for `Cc1ccc2nc3c(C(=O)O)cccn3c(=O)c2c1` was 677 s.

In the case of `COc1ccc(C(=O)N2CCC3(CC2)N=C(c2ccc(Cl)cc2)NO3)cc1F`, the RP-LC retention time was 819 s. Compound `CCC(C)NC(=O)C1CCN(Cc2cc3ccccc3n2Cc2ccccc2Cl)CC1` (stereo unspecified) had an RP-LC retention time of 784 s.

These data come from the METLIN SMRT retention time set (Domingo-Almenara et al. 2019).
